Assays:
[1] = test system: trisbipyridine cryptate TBP; details: TBP donor, d2 acceptor; 20 mM; incubation 16 h at ambient temperature
Procedure: Two identical experiments aimed at detecting a GST-biotin protein were carried out. In each of the experiments, a particular rare earth complex was used as FRET donor: either the trisbipyridine cryptate TBP or a terbium chelate sold in a form conjugated to an anti-GST antibody by the company Invitrogen (Cat no. PV3568).
The biotinylated GST protein was dispensed into a 96-well plate. Its presence was detected by FRET between the donor (the TBP or the terbium chelate) (carried by an anti-GST antibody) and the d2 acceptor (carried by streptavidin), after incubation for 16 h at ambient temperature in the presence or absence of 20 mM of manganese chloride (MnCl2) or of EDTA. A time-resolved fluorescence measurement is carried out (td=50 μs, tg=400 μs) at 620 nm and 665 nm (respectively E620 and E665) on a Rubystar® machine (BMG Labtech). Based on the fluorescence intensity values, E620 and E665, the E665/E620 intensity ratio is calculated and multiplied by 10 000 for greater convenience. […] In order to compare the delta F values obtained in the various media for the same donor, said values are normalized relative to the delta F obtained in buffer (100%).

[2] = test system: pyridine-bis(bipyridine) cryptate PBP4COOH; assay: FRET between PBP4COOH donor and d2 acceptor (biotinylated GST detection) with uric acid; details: PBP4COOH donor, 60 μM, incubation 16 h at ambient temperature
Procedure: (§1) In each of the experiments, a particular rare earth complex was used as FRET donor: either the trisbipyridine cryptate TBP or a pyridine-bis(bipyridine) cryptate PBP4COOH of formula: […]
(§2) Its presence was detected via FRET between the donor (the TBP or PBP4COOH) (carried by the anti-GST antibody) and the d2 acceptor (carried by streptavidin), after incubation for 16 h at ambient temperature in the presence or absence of 60 μM of uric acid. A time-resolved fluorescence measurement (td=50 μs, tg=400 μs) is carried out at 620 nm and 665 nm (E620 and E665, respectively) on a Rubystar® machine (BMG Labtech).
(§3) • 1.25 nM biotinylated GST; 2 nM anti-GST; 5 nM streptavidin; • 60 μm uric acid. Final reaction volume: 200 μl Buffer: 100 mM phosphate, pH 7.0, 0.10% BSA. Results

[3] = test system: europium cryptate TBP; assay: FRET between TBP donor and d2 acceptor (biotinylated GST detection) with uric acid; details: TBP donor, 60 μM, incubation 16 h at ambient temperature
Procedure: as §1, §2, §3

For `O=C(O)CN(CCN(CC(=O)O)CC(=O)O)CC(=O)O` [EDTA], the “FRET signal (normalized delta F)” value [1] was “does not modify”.
For `O=c1[nH]c(=O)c2[nH]c(=O)[nH]c2[nH]1` [uric acid], the “FRET signal (normalized delta F)” value [2] was “does not modify” and the FRET signal inhibited [3] was “more than 85%”.
With manganese chloride [MnCl2] the “FRET signal (normalized delta F)” value [1] was “does not modify”.

— patent US8361715B2, “Method for suppressing a FRET signal, FRET signal suppressor agents and use in a method for multiplexing biological events” (CIS Bio International, priority 2006, dated 2013)
